A value given as a limit tells only on which side of the number the result lay.

The target of this test is T1, recombinant human GST-SYK (Homo sapiens, UniProt P43405).
T1 construct: purchased Carna Biosciences 08-176
Put plainly: Homogeneous Time-Resolved Fluorescence (HTRF) assay for the recombinant human Syk enzyme. The conditions noted are these: HTRF assay, recombinant human GST-SYK; IC50 given as class symbols; read-out: rhSYK Activity. It is filed as biochemical. In a few lines:
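Phosphorylation of a biotinylated Syk substrate peptide (250 nM) was run for 45 min at room temperature with 25 μM ATP and 5 mM Mg. It followed a 10-min preincubation of GST-hSYK ([…]) with compound in 15 mM Tris-HCl pH 7.5, 2 mM DTT. Product was detected by time-resolved fluorescence using a europium anti-phosphotyrosine antibody plus SA-APC in EDTA-containing quench buffer.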
As for `Cc1cc(Nc2nccc(C(F)(F)F)n2)cc(-c2ccc(C(F)(F)C(=O)O)nc2)c1` [Example 2.116, difluoro[5-(3-methyl-5-{[4-(trifluoromethyl)pyrimidin-2-yl]amino}phenyl)pyridin-2-yl]acetic acid], the IC50 is less than 100 nM.
As for `Cc1cc(Nc2nccc(C(F)(F)F)n2)cc(-c2ccc(C(F)(F)CO)nc2)c1` [Example 2.117, 2,2-difluoro-2-[5-(3-methyl-5-{[4-(trifluoromethyl)pyrimidin-2-yl]amino}phenyl)pyridin-2-yl]ethanol], the figure is less than 100 nM; as for `COc1nc(Nc2cc(C)cc(-c3ccc(N[C@H]4CC[C@H](C(=O)O)CC4)nc3)c2)ncc1Cl` [Example 2.118, trans-4-[(5-{3-[(5-chloro-4-methoxypyrimidin-2-yl)amino]-5-methylphenyl}pyridin-2-yl)amino]cyclohexanecarboxylic acid], 100 to 1000 nM; as for `Cc1cc(Nc2ncc(Cl)c(C)n2)cc(-c2ccc(N[C@H]3CC[C@H](C(=O)O)CC3)nc2)c1` [Example 2.119, trans-4-[(5-{3-[(5-chloro-4-methylpyrimidin-2-yl)amino]-5-methylphenyl}pyridin-2-yl)amino]cyclohexanecarboxylic acid], less than 100 nM.
For the compound `Cc1cc(Nc2ncc(F)c(C)n2)cc(-c2ccc(N[C@H]3CC[C@H](C(=O)O)CC3)nc2)c1` [Example 2.120, trans-4-[(5-{3-[(5-fluoro-4-methylpyrimidin-2-yl)amino]-5-methylphenyl}pyridin-2-yl)amino]cyclohexanecarboxylic acid], the IC50 is less than 100 nM.
As for `COc1nc(Nc2cc(C)cc(-c3ccc(N[C@H]4CC[C@H](C(=O)O)CC4)nc3)c2)ncc1F` [Example 2.121, trans-4-[(5-{3-[(5-fluoro-4-methoxypyrimidin-2-yl)amino]-5-methylphenyl}pyridin-2-yl)amino]cyclohexanecarboxylic acid], the figure is less than 100 nM; as for `COc1cc(-c2cccc(Nc3nccc(C(F)(F)F)n3)c2)ccn1` [Example 2.122, N-[3-(2-methoxypyridin-4-yl)phenyl]-4-(trifluoromethyl)pyrimidin-2-amine], 100 to 1000 nM.
As for `Cc1cc(Nc2nccc(C(F)(F)F)n2)cc(-c2ccnc(C(F)(F)F)c2)c1` [Example 2.123, N-{3-methyl-5-[2-(trifluoromethyl)pyridin-4-yl]phenyl}-4-(trifluoromethyl)pyrimidin-2-amine], the figure is 100 to 1000 nM.
The same measure for `Cc1cc(Nc2nccc(C(F)(F)F)n2)cc(-c2ccncc2)c1` [Example 2.124, N-(3-methyl-5-pyridin-4-ylphenyl)-4-(trifluoromethyl)pyrimidin-2-amine]: less than 100 nM; for `Cc1cc(Nc2nccc(C(F)(F)F)n2)cc(-c2ccnc(O)c2)c1` [Example 2.125, 4-(3-methyl-5-{[4-(trifluoromethyl)pyrimidin-2-yl]amino}phenyl)pyridin-2-ol]: less than 100 nM; for `Cc1cc(Nc2nccc(C(F)(F)F)n2)cc(-c2ccnc(N3CCNCC3)c2)c1` [Example 2.126, N-[3-methyl-5-(2-piperazin-1-ylpyridin-4-yl)phenyl]-4-(trifluoromethyl)pyrimidin-2-amine]: less than 100 nM.
Take `Cc1cc(Nc2nccc(C(F)(F)F)n2)cc(-c2ccnc(Br)c2)c1` [Example 2.127, N-[3-(2-bromopyridin-4-yl)-5-methylphenyl]-4-(trifluoromethyl)pyrimidin-2-amine]: the IC50 was in the range of 100 to 1000 nM.
For `O=C(O)CCc1cc(-c2cccc(Nc3nccc(C(F)(F)F)n3)c2)ccn1` [Example 2.129, 3-[4-(3-{[4-(trifluoromethyl)pyrimidin-2-yl]amino}phenyl)pyridin-2-yl]propanoic acid], the IC50 was less than 100 nM.
The same measure for `COc1ccnc(Nc2cc(C)cc(-c3ccnc(CCC(=O)O)c3)c2)n1` [Example 2.131, 3-(4-{3-[(4-methoxypyrimidin-2-yl)amino]-5-methylphenyl}pyridin-2-yl)propanoic acid]: less than 100 nM.

The record behind these values is US9376418B2, “Substituted pyridine spleen tyrosine kinase (SYK) inhibitors” (Merck Sharp & Dohme Corp., priority 2012, dated 2016).
